Source: patent publication US8889874B2, “Imidazolone-chalcone derivatives as potential anticancer agent and process for the preparation thereof” (Council of Scientific and Industrial Research, priority 2010, dated 2014)

Assays:
Assay type in all cases: cell-based, human
[1] = test system: Leukemia cancer cell lines; experiment: NCI anticancer screen, SRB assay, panel summary; conditions: Leukemia panel
Experimental: (§1) Some of biological activity studies were carried out at the National Cancer Institute (NCI), Maryland, USA.
(§2) The compounds were evaluated for anticancer activity against fifty three human cancer cells derived from nine cancer types (leukemia cell line, non-small-cell lung cell line, colon cell line, CNS cell line, melanoma cell line, ovarian cell line, prostate cell line, and breast cancer cell line) as shown in Table 1. For each compound, dose response curves for each cell line were measured at a minimum of five concentrations at 10 fold dilutions. A protocol of 48 h continuous drug exposure was used and a sulforhodamine B (SRB) protein assay was used to estimate cell viability or growth.

[2] = test system: Ovarian cancer cell lines; experiment: NCI anticancer screen, SRB assay, panel summary; conditions: Ovarian panel
Experimental: as §1, §2

Colon cancer cell lines = experiment: NCI anticancer screen, SRB assay, panel summary; conditions: Colon panel
Experimental: as §1, §2

[3] = test system: Non-small cell lung cancer cell lines; experiment: NCI anticancer screen, SRB assay, panel summary
Experimental: as §1, §2

[4] = test system: Melanoma cancer cell lines; experiment: NCI anticancer screen, SRB assay, panel summary; conditions: Melanoma panel
Experimental: as §1, §2

[5] = test system: Prostate cancer cell lines; experiment: NCI anticancer screen, SRB assay, panel summary
Experimental: as §1, §2

Renal cancer cell lines = experiment: NCI anticancer screen, SRB assay, panel summary
Experimental: as §1, §2

Breast cancer cell lines = experiment: NCI anticancer screen, SRB assay, panel summary
Experimental: as §1, §2

CNS cancer cell lines = experiment: NCI anticancer screen, SRB assay, panel summary; conditions: CNS panel
Experimental: as §1, §2

[6] = test system: NCI-H460 (non-small cell lung); experiment: NCI anticancer screen, SRB assay, 48 h
In short: (§3)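 Sulforhodamine B protein assay read cell growth after 48 h of continuous compound exposure. Dose-response curves per cell line used at least five 10-fold-diluted concentrations, within a panel of fifty-three human lines from nine tumour types.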

A498 (renal) = experiment: NCI anticancer screen, SRB assay, 48 h
In short: as §3

HCT-15 (colon) = experiment: NCI anticancer screen, SRB assay, 48 h
In short: as §3

MDA-MB-435 (melanoma) = experiment: NCI anticancer screen, SRB assay, 48 h
In short: as §3

OVCAR-4 (ovarian) = experiment: NCI anticancer screen, SRB assay, 48 h
In short: as §3

HCC-2998 (colon) = experiment: NCI anticancer screen, SRB assay, 48 h
In short: as §3

UO-31 (renal) = experiment: NCI anticancer screen, SRB assay, 48 h
In short: as §3

SNB-75 (CNS) = experiment: NCI anticancer screen, SRB assay, 48 h
In short: as §3

[7] = test system: NCI-H23 (non-small cell lung); experiment: NCI anticancer screen, SRB assay, 48 h
In short: as §3

HCT-116 (colon) = experiment: NCI anticancer screen, SRB assay, 48 h
In short: as §3

[8] = test system: K-562 (leukemia cell line); experiment: NCI anticancer screen, SRB assay, 48 h
In short: as §3

MDA-MB-231/ATCC (breast) = experiment: NCI anticancer screen, SRB assay, 48 h
In short: as §3

SK-MEL-28 (melanoma) = experiment: NCI anticancer screen, SRB assay, 48 h
In short: as §3

HS 578T (breast) = experiment: NCI anticancer screen, SRB assay, 48 h
In short: as §3

[9] = test system: HOP-92 (non-small cell lung); experiment: NCI anticancer screen, SRB assay, 48 h
In short: as §3

[10] = test system: HOP-62 (non-small cell lung); experiment: NCI anticancer screen, SRB assay, 48 h
In short: as §3

TD-47D (breast) = experiment: NCI anticancer screen, SRB assay, 48 h
In short: as §3

[11] = log of concentration in mol/L causing 50% inhibition of net cell growth
[12] = log of concentration resulting in total inhibition of net cell growth
[13] = log of concentration leading to 50% net cell death
[14] = 48 h exposure, SRB, read-out: GI50

COc1ccc(-c2cn(-c3cccc(C(=O)/C=C/c4cc(OC)c(OC)c(OC)c4)c3)c(=O)[nH]2)cc1 [5b, 4-(4-methoxyphenyl)-1-3-[(E)-3-(3,4,5-trimethoxyphenyl)-2-propenoyl]phenyl-2,3-dihydro-1H-2-imidazolone]
mean graph midpoint (MG_MID) of Log10 GI50 [1, 11]: 5.96 | mean graph midpoint (MG_MID) of Log10 TGI [1, 12]: 4.00 | mean graph midpoint (MG_MID) of Log10 GI50 [2, 11]: 5.58 | mean graph midpoint (MG_MID) of Log10 LC50 [2, 13]: 4.41 | mean graph midpoint (MG_MID) of Log10 TGI [2, 12]: 4.83 | mean graph midpoint (MG_MID) of Log10 GI50 (Colon cancer cell lines; [11]): 5.95 | mean graph midpoint (MG_MID) of Log10 LC50 (Colon cancer cell lines; [13]): 5.13 | mean graph midpoint (MG_MID) of Log10 TGI (Colon cancer cell lines; [12]): 5.58 | mean graph midpoint (MG_MID) of Log10 LC50 [3]: 4.82 | mean graph midpoint (MG_MID) of Log10 GI50 ([3]; Non-small cell lung panel, log of concentration in mol/L causing 50% inhibition of net cell growth): 5.30 | mean graph midpoint (MG_MID) of Log10 TGI ([3]; Non-small cell lung panel, log of concentration resulting in total inhibition of net cell growth): 4.66 | mean graph midpoint (MG_MID) of Log10 GI50 [4, 11]: 5.72 | mean graph midpoint (MG_MID) of Log10 LC50 [4, 13]: 4.58 | mean graph midpoint (MG_MID) of Log10 TGI [4, 12]: 5.25 | mean graph midpoint (MG_MID) of Log10 GI50 [5, 11]: 5.21 | mean graph midpoint (MG_MID) of Log10 TGI [5, 12]: 4.41 | mean graph midpoint (MG_MID) of Log10 LC50 (Renal cancer cell lines): 4.46 | mean graph midpoint (MG_MID) of Log10 GI50 (Renal cancer cell lines; Renal panel, log of concentration in mol/L causing 50% inhibition of net cell growth): 5.60 | mean graph midpoint (MG_MID) of Log10 TGI (Renal cancer cell lines; Renal panel, log of concentration resulting in total inhibition of net cell growth): 5.12 | mean graph midpoint (MG_MID) of Log10 LC50 (Breast cancer cell lines): 4.91 | mean graph midpoint (MG_MID) of Log10 GI50 (Breast cancer cell lines; Breast panel, log of concentration in mol/L causing 50% inhibition of net cell growth): 5.61 | mean graph midpoint (MG_MID) of Log10 TGI (Breast cancer cell lines; Breast panel, log of concentration resulting in total inhibition of net cell growth): 4.86 | mean graph midpoint (MG_MID) of Log10 GI50 (CNS cancer cell lines; [11]): 5.54 | mean graph midpoint (MG_MID) of Log10 LC50 (CNS cancer cell lines; [13]): 4.55 | mean graph midpoint (MG_MID) of Log10 TGI (CNS cancer cell lines; [12]): 5.01 | pGI50 (-log of molar concentration causing 50% inhibition of net cell growth) [6]: 5.81 | GI50 [6, 14]: 1560 nM | pGI50 (-log of molar concentration causing 50% inhibition of net cell growth) (A498 (renal)): 5.38 | GI50 (A498 (renal); [14]): 4210 nM | pGI50 (-log of molar concentration causing 50% inhibition of net cell growth) (HCT-15 (colon)): 5.86 | GI50 (HCT-15 (colon); [14]): 1380 nM | pGI50 (-log of molar concentration causing 50% inhibition of net cell growth) (MDA-MB-435 (melanoma)): 5.73 | GI50 (MDA-MB-435 (melanoma); [14]): 1860 nM | pGI50 (-log of molar concentration causing 50% inhibition of net cell growth) (OVCAR-4 (ovarian)): 5.45 | GI50 (OVCAR-4 (ovarian); [14]): 3570 nM | pGI50 (-log of molar concentration causing 50% inhibition of net cell growth) (HCC-2998 (colon)): 5.79 | GI50 (HCC-2998 (colon); [14]): 1640 nM | pGI50 (-log of molar concentration causing 50% inhibition of net cell growth) (UO-31 (renal)): 5.72 | GI50 (UO-31 (renal); [14]): 1910 nM | pGI50 (-log of molar concentration causing 50% inhibition of net cell growth) (SNB-75 (CNS)): 5.34 | GI50 (SNB-75 (CNS); [14]): 4590 nM | pGI50 (-log of molar concentration causing 50% inhibition of net cell growth) [7]: 5.79 | GI50 [7, 14]: 1630 nM | pGI50 (-log of molar concentration causing 50% inhibition of net cell growth) (HCT-116 (colon)): 6.43 | GI50 (HCT-116 (colon); [14]): 370 nM | pGI50 (-log of molar concentration causing 50% inhibition of net cell growth) [8]: 5.90 | GI50 [8, 14]: 1270 nM | pGI50 (-log of molar concentration causing 50% inhibition of net cell growth) (MDA-MB-231/ATCC (breast)): 5.26 | GI50 (MDA-MB-231/ATCC (breast); [14]): 5480 nM | pGI50 (-log of molar concentration causing 50% inhibition of net cell growth) (SK-MEL-28 (melanoma)): 5.69 | GI50 (SK-MEL-28 (melanoma); [14]): 2030 nM | pGI50 (-log of molar concentration causing 50% inhibition of net cell growth) (HS 578T (breast)): 5.47 | GI50 (HS 578T (breast); [14]): 3390 nM | pGI50 (-log of molar concentration causing 50% inhibition of net cell growth) [9]: 4.83 | GI50 [9, 14]: 14900 nM | pGI50 (-log of molar concentration causing 50% inhibition of net cell growth) [10]: 5.23 | GI50 [10, 14]: 5910 nM | pGI50 (-log of molar concentration causing 50% inhibition of net cell growth) (TD-47D (breast)): 5.42 | GI50 (TD-47D (breast); [14]): 3840 nM
